This note sets out measurements from ChEMBL document CHEMBL3352393, “Gallic acid, one of the components in many plant tissues, is a potential inhibitor for insulin amyloid fibril formation” (Eur J Med Chem, 2014).

Active and inactive are the calls of the source. No cut-off for these calls is given here. Some results are limits rather than exact numbers.

The species named for experiment [1] is Homo sapiens. In words: Inhibition of insulin fibril formation (unknown origin) assessed as decrease in ThT fluorescence at 1:50 insulin to compound ratio at pH2 up to 12 hrs by ThT binding assay.
For experiment [2], the species on record is Homo sapiens. In words: Inhibition of insulin fibril formation (unknown origin) assessed as secondary structural changes at 1:5 insulin to compound ratio at pH2 up to 12 hrs by FT-IR technique.
The species entered for experiment [3] is Homo sapiens. In words: Inhibition of insulin fibril formation (unknown origin) assessed as turbidity at 1:20 insulin to compound ratio at pH2 up to 12 hrs by atomic force microscopy.
For experiment [4], the species on record is Homo sapiens. In words: Inhibition of insulin fibril formation (unknown origin) assessed as turbidity at 1:5 insulin to compound ratio at pH2 up to 12 hrs by UV/vis spectrometry. As to conditions: concentration not given here.
The species named for experiment [5] is Homo sapiens. In words: Inhibition of insulin fibril formation (unknown origin) assessed as secondary structural changes at 1:5 insulin to compound ratio at pH2 up to 12 hrs by Far-UV CD spectra.
The species entered for experiment [6] is Homo sapiens. In words: Inhibition of insulin fibril formation (unknown origin) assessed as turbidity at 1:50 insulin to compound ratio at pH2 up to 12 hrs by UV/vis spectrometry. Particulars: concentration not given here.
The species named for experiment [7] is Homo sapiens. In words: Inhibition of insulin fibril formation (unknown origin) assessed as decrease in ThT fluorescence at 1:5 insulin to compound ratio at pH2 up to 12 hrs by ThT binding assay.
The species named for experiment [8] is Homo sapiens. In words: Inhibition of insulin fibril formation (unknown origin) assessed as turbidity at 1:10 insulin to compound ratio at pH2 up to 12 hrs by UV/vis spectrometry.
For experiment [9], the species on record is Homo sapiens. In words: Inhibition of insulin fibril formation (unknown origin) assessed as turbidity at pH2 up to 12 hrs by UV/vis spectrometry.

In the case of `O=C(O)c1cc(O)c(O)c(O)c1`, the inhibition entry in [1], in [2], in experiment [3], in [5], in [7] and in experiment [8] was “Active” each time. For the same compound, the inhibition is greater than 50% in experiment [4], 90% in [6] and “Dose-dependent effect” in experiment [9].
